Results on 4 compounds are retold here after patent US5236904A, “Erection-inducing methods and compositions” (Senetek, plc, priority 1989, dated 1993).

Data set [1] relates to males who are impotent due to severe atherosclerosis. To be noted: cited from earlier work; for efficacy in impotence due to severe atherosclerosis: in vivo.
Data set [2] deals with human males. To be noted: cited from earlier work; for priapism: treatment of impotence.
For data set [3], the system named is males with psychogenic or neurogenic dysfunction, severe atherosclerosis not involved. The following applies: cited from earlier work; for erection on intracavernosal injection: severe atherosclerosis not involved.
For data set [4] the following is noted: aqueous composition; cited from earlier work.
The subject of data set [5] is human suffering from impotence, of which severe atherosclerosis is a cause. Briefly: Intracavernosal injection coupled with sexual stimulation in males with impotence caused by severe atherosclerosis. The class given is in vivo.
Protocol: Thus, between about 0.1 ml and about 5 ml, and preferably about 1 ml, of a physiologically acceptable composition comprising one of VIP or PHM or a mixture thereof and an alpha-adrenergic blocker is administered as a bolus by intracavernosal injection during, or prior to the initiation of, sexual stimulation and preferably with the penis constricted at its base for between about 1 minute and about 15 minutes (preferably about 5 minutes-about 10 minutes) after the injection.
The next data set has as its system normal male. To be noted: cited from earlier work.
Data set [6] relates to human males. The following applies: in vivo. The protocol: Priapism is a serious, deleterious side effect of treatment of erectile insufficiency with these drugs. Beyond the embarrassment that may be caused for some men, priapism is usually painful, irreversibly damages erectile tissue, and, to be relieved, requires bleeding or pharmacological intervention (e.g., injection of a sympathomimetic drug such as adrenaline).
Preferably 1 ml of the preferred composition is administered as a bolus by injection into a corpus cavernosum while the penis is constricted at its base with a tourniquet. About 5-10 minutes after the injection, the tourniquet is released and, if not already started before the tourniquet is released, sexual stimulation is begun.

Entries after “also recorded” stand apart in the source; their conditions may differ.

In the case of `COc1ccc(Cc2nccc3cc(OC)c(OC)cc23)cc1OC` [papaverine], in data set [1], the “efficacy in impotence due to severe atherosclerosis” value (“efficacy in impotence due” for short) is reported as “ineffective; also recorded: not susceptible to treatment”. In the data set on human males [2] (even if priapism does not occur), the pain after injection entry was “painful, burning sensation in the first two or so minutes after the injection”. The fibrosis entry in the data set with human males [2] (repeated use) is on record as “undesirable, extensive intracavernous fibrosis”. In the data set on human males [2], the priapism entry is “often results in priapism”. Besides, the “erection on intracavernosal injection” value in data set [3] is reported as “cause an erection sufficient for vaginal penetration”.

As for `CC(COc1ccccc1)N(CCCl)Cc1ccccc1` (centres unmarked) [phenoxybenzamine], the “efficacy in impotence due” value in data set [1] is recorded as “not susceptible to treatment”. The priapism result with human males [2] is “often results in priapism”. Besides, in data set [3], the “erection on intracavernosal injection” value is on record as “cause an erection sufficient for vaginal penetration”.

Regarding `Cc1ccc(N(CC2=NCCN2)c2cccc(O)c2)cc1` [phentolamine], in data set [1], the “efficacy in impotence due” value is recorded as “not susceptible to treatment”. Also, the stability in solution result in data set [4] is “lability”. In addition, the duration of erection entry in data set [3] (compared with papaverine or phenoxybenzamine) is reported as “significantly shorter duration”. Also, in data set [3], the “erection on intracavernosal injection” value is given as “causes an erection sufficient for vaginal penetration”.

In the case of “human vasoactive intestinal peptide [VIP]”, in data set [1] (impotent due to severe atherosclerosis), the “induction of erections, VIP alone coupled with sexual stimulation” value was “does not induce erections”. Further, in data set [5] (30 μg neuropeptide together with alpha-adrenergic blocker, in most cases), the “erection sufficient for vaginal penetration” value is “sufficient to induce an erection sufficient for vaginal penetration”. For the same compound, the “treatment of impotence, neuropeptide in combination with an alpha-adrenergic blocker” value in data set [5] (intracavernosal injection with alpha-adrenergic blocker such as phentolamine or prazosin, coupled with sexual stimulation) is given as “treated effectively”. Besides, in data set [5] (without alpha-adrenergic blocker), the “induction of erections, neuropeptide alone” value was “not effective”. Besides, the “erectile response with sexual stimulation” value in the data set on normal male (as little as 1 μg (at 1 μg/ml of diluent), visual and/or vibration stimulation) was “facilitates full erection”. The “erectile response without sexual stimulation” value with normal male (up to 20 μg (at 20 μg/ml of diluent), no sexual stimulation) is “only slight swelling (slight tumescence) of the penis but not an erection”. The “systemic side effects due to administration” value with human males [2] (background statement) was “flushing of the skin and hypotension”. The “priapism or burning pain on induction of an erection” value in the data set with human males [6] is “does not entail priapism or the burning pain”.
